Results on 11 compounds are retold here after ChEMBL document CHEMBL1201862, “PubChem BioAssay data set” (2004).

Some test systems named below: SF-268; MOLT-4; M14; SF-539; SN12C; A549; CAKI-1; OVCAR-3; HOP-92; HCT-116; UACC-62; SNB-75; EKVX; NCI/ADR-RES; Malme-3M; OVCAR-4; MDA-N; NCI-H522; CCRF-CEM.
Holding throughout (test): NCI-60 cell line screen, 48 h

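1) Cells in 96-well plates. 2) Compound, 48 h, 5 concentrations. 3) Linear interpolation between surrounding doses. 4) Unreached endpoint = highest concentration. The concentration for 50% growth inhibition is given as GI50.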 Activity calls are given as the source filed them. No stated cut-off is given here; in the data, active = GI50 up to about 1.1 µM and inactive = higher.

Regarding `COc1ccc2c(c1)nc1n2C(c2c(Cl)cccc2Cl)SC1` (stereo unspecified), the GI50 with SF-268 is 20 µM (inactive); in the assay on MOLT-4, > 21.6 µM (inactive); with M14, 12.4 µM (inactive); in the assay with SF-539, 9.1 µM (inactive); with SN12C it was > 57.5 µM (inactive); in the assay with A549 it was 18 µM (inactive). Besides, the GI50 with CAKI-1 is > 60.7 µM (inactive); in the assay on OVCAR-3, > 20.5 µM (inactive); in the assay on HOP-92 it was > 71.4 µM (inactive); with HCT-116, 7.85 µM (inactive); in the assay on UACC-62, 18.4 µM (inactive); with SNB-75 it was > 28.2 µM (inactive). Also, the GI50 is > 64.1 µM (inactive) in the assay with EKVX; 4.12 µM (inactive) with NCI/ADR-RES; 3.01 µM (inactive) with Malme-3M; > 46.6 µM (inactive) in the assay with OVCAR-4; 2.26 µM (inactive) in the assay with MDA-N.

Take `CNc1nc(SC)nc2c1c(N)nn2C`: the GI50 with SF-268, in the assay on MOLT-4, in the assay with NCI-H522, with M14, in the assay with SN12C and in the assay on A549 was > 100 µM (inactive) in each case. The GI50 in the assay with CAKI-1 was > 100 µM (inactive); in the assay on OVCAR-3 it was > 100 µM (inactive); in the assay on HOP-92, > 100 µM (inactive); in the assay with HCT-116 it was > 100 µM (inactive); in the assay with UACC-62, > 100 µM (inactive); with SNB-75, 95.7 µM (inactive). Besides, the GI50 in the assay with NCI/ADR-RES, with Malme-3M, in the assay on OVCAR-4, in the assay on CCRF-CEM and with MDA-N was > 100 µM (inactive) throughout.

For the compound `O=C(c1ccc(Cl)cc1)N1CCN=C1c1cc2ccccc2c2ccccc12`, the GI50 in the assay with SF-268 is 16.7 µM (inactive); in the assay with MOLT-4, 33.7 µM (inactive); with M14, 38.7 µM (inactive); with SF-539, 15.7 µM (inactive); with SN12C, 16.9 µM (inactive); with A549, 15.9 µM (inactive). For the same compound, the GI50 with CAKI-1 is 15.7 µM (inactive); in the assay on OVCAR-3, 17.6 µM (inactive); in the assay on HOP-92 it was 11.6 µM (inactive); with HCT-116, 14.9 µM (inactive); in the assay on UACC-62, 14.5 µM (inactive); in the assay with SNB-75, 12.4 µM (inactive). Moreover, the GI50 is 13.8 µM (inactive) with EKVX; 15.6 µM (inactive) in the assay on NCI/ADR-RES; 17.3 µM (inactive) in the assay on Malme-3M; 14.2 µM (inactive) with OVCAR-4; 27.4 µM (inactive) in the assay on CCRF-CEM; 16.4 µM (inactive) in the assay on MDA-N.

As to `COc1cc2c3c(n(C)c(=O)c2cc1OC)-c1cc2c(cc1/C3=C/CCCCBr)OCO2`, the GI50 was 37.4 µM (inactive) in the assay with SF-268; 4.51 µM (inactive) in the assay with MOLT-4; 4.16 µM (inactive) with NCI-H522; 32.9 µM (inactive) in the assay on M14; > 100 µM (inactive) in the assay with A549; 5.86 µM (inactive) in the assay on CAKI-1. Also, the GI50 in the assay on HOP-92 was 57.7 µM (inactive); with SNB-75, 11.6 µM (inactive); with EKVX it was > 100 µM (inactive); with NCI/ADR-RES, > 100 µM (inactive); in the assay with Malme-3M, > 100 µM (inactive); in the assay with CCRF-CEM it was 1.7 µM (inactive). Moreover, in the assay on MDA-N, the GI50 is > 100 µM (inactive).

Consider `O=C(CCn1ccnc1[N+](=O)[O-])NCCCn1ccnc1[N+](=O)[O-]`, for which the GI50 in the assay on SF-268, in the assay with MOLT-4, with NCI-H522, in the assay on M14, in the assay on SF-539 and in the assay with SN12C was > 100 µM (inactive) throughout. Besides, the GI50 in the assay with A549, in the assay on CAKI-1, in the assay with OVCAR-3, in the assay on HCT-116, with UACC-62 and in the assay with SNB-75 was > 100 µM (inactive) throughout. Besides, the GI50 with EKVX, in the assay on NCI/ADR-RES, in the assay on Malme-3M, with OVCAR-4, with CCRF-CEM and with MDA-N was > 100 µM (inactive) each time.

Take `C=C(C1=CC(=O)C(C)(C)O1)[C@@H]1CC=C([C@@H]2CC[C@H]3[C@@]2(C)CC[C@H]2C(C)(C)C(=O)[C@H](OC(=O)CC(C)(O)CC(=O)O)C[C@]32C)[C@H](O)O1` (stereo partly specified): the GI50 with SF-268 is 10.9 µM (inactive); in the assay on MOLT-4 it was 4.14 µM (inactive); in the assay with NCI-H522, 11.4 µM (inactive); in the assay on M14 it was 13.5 µM (inactive); with SF-539, 13 µM (inactive); in the assay with SN12C it was 15.3 µM (inactive). The GI50 was 17.6 µM (inactive) with A549; 17.2 µM (inactive) with CAKI-1; 11.9 µM (inactive) with OVCAR-3; 12.7 µM (inactive) with HOP-92; 12.9 µM (inactive) in the assay with HCT-116; 12.1 µM (inactive) in the assay with UACC-62. The GI50 in the assay on EKVX is 15.3 µM (inactive); with NCI/ADR-RES, 19 µM (inactive); in the assay with Malme-3M, 13.4 µM (inactive); in the assay with CCRF-CEM, 2.19 µM (inactive); in the assay with MDA-N it was 13.9 µM (inactive).

As to `CC1(C)OC(=S)N(c2ccccc2)C12C=Cc1ccccc1O2` (stereo unspecified), the GI50 in the assay with SF-268 was > 100 µM (inactive); in the assay on MOLT-4 it was 22.5 µM (inactive); in the assay with NCI-H522, 20.2 µM (inactive); in the assay with M14, 90.6 µM (inactive); with SN12C, > 100 µM (inactive); in the assay with A549 it was > 100 µM (inactive). The GI50 in the assay with CAKI-1 was > 100 µM (inactive); in the assay on OVCAR-3, > 100 µM (inactive); with HOP-92, 88.3 µM (inactive); with HCT-116, 36.6 µM (inactive); with UACC-62, 75.5 µM (inactive); with SNB-75 it was 49.2 µM (inactive). Moreover, the GI50 is 53.5 µM (inactive) in the assay on EKVX; 53.5 µM (inactive) in the assay on NCI/ADR-RES; 33.4 µM (inactive) in the assay with OVCAR-4; 27.8 µM (inactive) with CCRF-CEM; 39.5 µM (inactive) in the assay with MDA-N.

Turning to `Cc1cccc(N(C(=O)Nc2ccc(Cl)c(Cl)c2)C2=NCC(C)S2)c1` (stereo unspecified), the GI50 was 23.2 µM (inactive) in the assay with SF-268; 16.2 µM (inactive) with MOLT-4; 0.55 µM (active) in the assay on M14; 22.7 µM (inactive) in the assay on SF-539; 59.3 µM (inactive) in the assay on SN12C; 38.9 µM (inactive) in the assay on A549. Also, the GI50 is 46.5 µM (inactive) in the assay with CAKI-1; 74.5 µM (inactive) in the assay with OVCAR-3; 38.6 µM (inactive) in the assay with HOP-92; 43.1 µM (inactive) with HCT-116; 54.3 µM (inactive) in the assay with SNB-75; 84.7 µM (inactive) with EKVX. Further, the GI50 in the assay on NCI/ADR-RES was 28 µM (inactive); in the assay on Malme-3M, 60.1 µM (inactive); with OVCAR-4, 41.6 µM (inactive); with CCRF-CEM, 46.1 µM (inactive); with MDA-N, 32.9 µM (inactive).

For the compound `Cc1ccc(S(=O)(=O)N/N=C2\CC(C)OC3=C2CCCCCC3)cc1` (stereo unspecified), the GI50 in the assay with SF-268 is 19.9 µM (inactive); in the assay with MOLT-4, 14.6 µM (inactive); in the assay with M14, 20.3 µM (inactive); in the assay with SF-539, 20.5 µM (inactive); with SN12C it was 19.3 µM (inactive); with A549 it was 16.7 µM (inactive). Further, the GI50 with CAKI-1 was 25.9 µM (inactive); in the assay with OVCAR-3, 19.7 µM (inactive); in the assay with HOP-92, 19.6 µM (inactive); with HCT-116, 16.5 µM (inactive); in the assay with UACC-62 it was 14.5 µM (inactive); in the assay on SNB-75 it was 24.2 µM (inactive). The GI50 was 15.2 µM (inactive) in the assay with EKVX; 20.5 µM (inactive) in the assay with NCI/ADR-RES; 21.7 µM (inactive) with Malme-3M; 19.8 µM (inactive) in the assay on OVCAR-4; 24.7 µM (inactive) with CCRF-CEM; > 100 µM (inactive) with MDA-N.

For `Cc1ccccc1C1CC(=O)CC(c2ccccc2C)C12C(=O)NC(=S)NC2=O` (stereo unspecified), the GI50 is 32.7 µM (inactive) with SF-268; 42.4 µM (inactive) with MOLT-4; 24.3 µM (inactive) in the assay with M14; 20.9 µM (inactive) in the assay with SF-539; 26.4 µM (inactive) in the assay on SN12C; 29.5 µM (inactive) in the assay on A549. In addition, the GI50 in the assay on CAKI-1 is 58.2 µM (inactive); with OVCAR-3, 29 µM (inactive); in the assay with HOP-92 it was 26.1 µM (inactive); with HCT-116, 20.5 µM (inactive); with UACC-62, 18.7 µM (inactive); with SNB-75 it was 20.8 µM (inactive). Besides, the GI50 in the assay with EKVX is 47.2 µM (inactive); in the assay with NCI/ADR-RES, 30.3 µM (inactive); in the assay with Malme-3M, 25.6 µM (inactive); with OVCAR-4, 37.5 µM (inactive); with CCRF-CEM, 25 µM (inactive); with MDA-N, 23.6 µM (inactive).

For the compound `COc1cc(C2S/C(=C/c3ccccc3)C(=O)N2Cc2ccccc2)cc(OC)c1OC` (stereo unspecified), the GI50 in the assay on SF-268 is 33.1 µM (inactive); in the assay on MOLT-4 it was 18.4 µM (inactive); in the assay on NCI-H522, 16.1 µM (inactive); in the assay on M14, 33.1 µM (inactive); with SN12C it was 39.2 µM (inactive); in the assay on A549, 27.3 µM (inactive). For the same compound, the GI50 in the assay on CAKI-1 is 36.8 µM (inactive); in the assay on HOP-92, 28.8 µM (inactive); in the assay on HCT-116, 17.5 µM (inactive); in the assay on UACC-62, 23.5 µM (inactive); with SNB-75, 18.5 µM (inactive); in the assay on EKVX it was 55.6 µM (inactive). Further, the GI50 in the assay on NCI/ADR-RES is 26.4 µM (inactive); with OVCAR-4 it was 23.2 µM (inactive); in the assay on CCRF-CEM, 23.1 µM (inactive); in the assay with MDA-N, 19.3 µM (inactive).
